According to patent US8980226B2, “Aerosolized fosfomycin/aminoglycoside combination for the treatment of bacterial respiratory infections” (Gilead Sciences, Inc., priority 2004, dated 2015):
Converted amounts (≈) assume the structure as drawn. Where two headings read alike, the source gives them in different places.

Experiments:
P. aeruginosa COR-014 = experiment: Multistep resistance analysis (continuous serial passage); format: cell-based; details: for MIC: Pseudomonas aeruginosa
Method: A single colony of P. aeruginosa COR-014 was inoculated into 5 mL of MHCAB and briefly vortexed. Two-fold serial dilutions of fosfomycin alone covering the range of 1 μg/mL-512 μg/mL, tobramycin alone covering 0.0625 μg/mL-512 μg/mL, and a 9:1 fosfomycin:tobramycin combination covering 0.0625 μg/mL-512 μg/mL were made in CAMHB. Ten microliters of bacterial suspension was pipetted into 3 mL of each antibiotic dilution and incubated statically at 35° C. for 18-24 hours. Tubes with the highest concentration of antibiotic having visible bacterial growth were selected from each antibiotic dilution series and 100 μl of the culture was pipeted into a fresh antibiotic dilution series. Tubes were incubated statically at 35° C. for 18-24 hours. This process was repeated for a total of 28 times. MICs of fosfomycin alone, tobramycin alone, and fosfomycin plus tobramycin were determined for the parent strain and resistant isolates collected after each passage as described in Example 5, Method C.

[1] = in vivo; cited from earlier work
P. aeruginosa ATCC 27853 = experiment: MIC for P. aeruginosa ATCC 27853; format: cell-based; details: Pseudomonas aeruginosa, ATCC27853
Method: E. coli ATCC 25922 and S. aureus ATCC 29213 were used as quality control stains. Bacterial strains were streaked onto blood agar plates, and incubated at 35° C. for 18 hours. Two to three bacterial colonies from the overnight cultures were inoculated into 3 mL of sterile normal saline, vortexed briefly, and adjusted to a 0.5 McFarland standard (NCCLS, 2003). The bacterial suspension was diluted 1:100 in cation-adjusted Mueller-Hinton broth (hereafter referred to as CAMHB). […] The MIC was defined as the lowest concentration of antibiotic (s) that prevented visible growth after incubation at 35° C. for 18-24 hours. […] Two to three bacterial colonies were inoculated into 10 mL CAMHB and incubated at 35° C. in a shaking water bath (250 rpm) for 18-24 hours. […] The resulting culture was adjusted to a 0.5 McFarland standard (NCCLS, 2003). […] Ten milliliter aliquots were then pipeted into 50 mL conical tubes. […] The killing activity of fosfomycin plus amikacin, arbekacin, dibikacin, gentamicin, kanamycin, […], neomycin, streptomycin, or tobramycin were also compared to the killing activity of their individual components alone. […] A no drug control was run in each experiment. Cultures were incubated with antibiotic at 35° C. in a shaking (250 rpm) water bath for 24 hours. […] Culture plates were incubated at 35° C. for 18-24 hours and the number of colonies enumerated manually. […]

[2] = tested on: 100 P. aeruginosa strains isolated from lung sputum samples from cystic fibrosis patients; experiment: MIC50 and MIC90 for 100 P. aeruginosa strains, without mucin; format: cell-based; details: Pseudomonas aeruginosa
Method: The MICs of fosfomycin alone, tobramycin alone, or combinations of fosfomycin plus tobramycin were determined by the agar-plate dilution method according to NCCLS guidelines (NCCLS, 2003). Bacterial strains were streaked onto Trypic Soy Agar plates (PML Microbiologicals, Wilsonville, Oreg.) containing 5% defibrinated sheep blood (hereafter referred to as blood agar plates) and incubated overnight at 35° C. Two to three bacterial colonies from the overnight cultures were inoculated into 3 mL of sterile normal saline, vortexed briefly, and adjusted to a 0.5 McFarland standard (NCCLS, 2003). The bacterial suspension was diluted 1:40 in sterile normal saline and served as the inoculum. Mueller-Hinton agar plates (hereafter referred to as MHA) were prepared by combining 16 g of agarose (Becton-Dickinson, Sparks, Md.), 22 g of Mueller-Hinton broth powder (Becton-Dickinson, Sparks, Md.), and adjusted to 1 L with distilled water. The agar was sterilized by autoclaving, cooled to 55° C., and supplemented with 25 μg/mL of glucose-6-phosphate (Sigma-Aldrich, St. Louis, Mo.). Twenty-five mL of cooled agar was aliquoted into 50 mL conical tubes and supplemented with appropriate concentrations of antibiotic to achieve concentrations ranging from 0.06 μg/mL to 512 μg/mL. After gently mixing the agar and antibiotic, the suspension was poured into sterile 100 mm petri dishes and allowed to solidify at room temperature. The antibiotic agar plates were inoculated with approximately 2×10^4 CFU/spot with a 48-point inoculator (Sigma-Aldrich, St. Louis, Mo.). The MIC was defined as the lowest concentration of antibiotic (s) that prevented visible growth after incubation for 18-20 hours at 35° C. The efficacy of a particular antibiotic or antibiotic combination on large populations of P. aeruginosa was determined by calculating the MIC50 and MIC90 values. The MIC50 value was defined as the concentration of antibiotic(s) which inhibited 50% of the P. aeruginosa strains. The MIC90 value was defined as the concentration of antibiotic(s) which inhibited 90% of the P. aeruginosa strains (Wiedemann and Grimm, 1996).

[3] = tested on: E. coli, Proteus spp., Salmonella spp., Shigella spp., and S. marcescens; details: Forsgren and Walder, 1983; cited from earlier work
[4] = cited from earlier work
[5] = in vivo; cited from earlier work; remark: listed apart in the source
[6] = 28 days of continuous exposure, clinical P. aeruginosa strain
[7] = COR014, 168 h, read-out: MIC 7d
[8] = COR014, 336 h, read-out: MIC 14d
[9] = COR014, 504 h, read-out: MIC 21d
[10] = COR014, 672 h, read-out: MIC 28d
[11] = COR014, read-out: MIC of the parent strain

| Compound | development of resistance on continuous exposure (P. aeruginosa COR-014; [6]) | MIC (P. aeruginosa COR-014; COR014, 0 h, read-out: MIC 0d) [µg/mL] | MIC (P. aeruginosa COR-014; [7]) [µg/mL] | MIC (P. aeruginosa COR-014; [8]) [µg/mL] | MIC (P. aeruginosa COR-014; [9]) [µg/mL] | MIC (P. aeruginosa COR-014; [10]) [µg/mL] | MIC (P. aeruginosa COR-014; [11]) [µg/mL] | concentrations in normal lung [1] [µg/mL] | peak serum concentrations [1] [µg/mL] | time of peak serum concentrations [1] [h] | MIC (P. aeruginosa ATCC 27853) [µg/mL] | MIC50 [2] [µg/mL] | MIC90 [2] [µg/mL] | fosfomycin concentrations at which the species are generally inhibited [3] [µg/mL] | sputum levels ([4]; aerosol administration) [µg/mL] | oral absorption ([4]; in vivo, po) | plasma half-life ([4]; parenteral administration) [h] | increase in MIC on continuous exposure (P. aeruginosa COR-014; [6]) [fold] | prevalence of nephrotoxicity [5] |
| --- | --- | --- | --- | --- | --- | --- | --- | --- | --- | --- | --- | --- | --- | --- | --- | --- | --- | --- | --- |
| C[C@@H]1O[C@@H]1P(=O)(O)O [Fosfomycin] | rapid and dramatic development of resistance | 16 | > 512 | > 512 | > 512 | > 512 | 8 | 1 to 13 | 25 to 95 | 1 to 2 | 4 (≈ 29 µM) | 64 | ≥ 512 | ≤ 64 | – | – | – | – | – |
| NC[C@H]1O[C@H](O[C@H]2[C@H](O)[C@@H](O[C@H]3O[C@H](CO)[C@@H](O)[C@H](N)[C@H]3O)[C@H](N)C[C@@H]2N)[C@H](N)C[C@@H]1O [Tobramycin] | – | 0.5 | 0.5 | 0.5 | 32 | 64 | 0.5 | – | – | – | – | 2 | 16 | – | ≥ 1000 | poorly absorbed orally | 1 to 2 | 128 | 31-42% |
